Test results taken from article PMC7482066, “Unstable Mechanisms of Resistance to Inhibitors of Escherichia coli Lipoprotein Signal Peptidase” (mBio, 2020).

Key:
[1] = tested on: lspA-overexpressing or lpp-deleted bacteria; settings: in words, cited from earlier work
E. coli MG1655 ΔtolC = test: MIC; assay type: cell-based; settings: E. coli MG1655 WT vs MG1655 ΔtolC
Description: MICs of compounds in each strain were determined in cation-adjusted Mueller-Hinton II (MHII) broth or MHII agar according to the Clinical and Laboratory Standards Institute protocol (CLSI 2006). To measure the effect of protein binding on activity, MIC assays were performed in the presence of 50% heat-inactivated human serum. The serum killing assay was performed as described previously ([43]). FOR assays and growth on plates containing G0790 were always performed on MHII agarose plates.

LspA = settings: cited from earlier work; for LspA inhibition, mode: in words
Excerpt: Bacterial lipoprotein biosynthesis is an attractive target for novel antibiotic drug discovery, as bacterial lipoproteins play critical roles in adhesion, nutrient uptake, antibiotic resistance, virulence, invasion, and immune evasion ([14]). Lipoprotein biosynthesis in Gram-negative bacteria is mediated by three essential inner membrane-localized enzymes ([14]), which work sequentially to generate the mature triacylated lipoproteins. The second enzyme in the pathway, prolipoprotein signal peptidase (LspA), is an aspartyl endopeptidase which cleaves off the signal peptide N-terminal to a conse ... || Our efforts to identify potent GBM analogs were driven by whole bacterial cell activity assays due to the low translatability of in vitro biochemical activity ([34], [35]).

[2] = tested on: wild-type (WT) Gram-negative bacteria; settings: in words; cited from earlier work
Excerpt: Therefore, with the goal of increasing GBM whole-cell potency through medicinal chemistry optimization, we identified G0790 as an analog with increased growth inhibitory activity against multiple Gram-negative bacterial species ([36]). G0790 contains (S)-2,3-diaminopropionic acid (Dap), cyclohexylglycine (Chg), and N-methyl ...

E. coli CFT073 = test: Bactericidal activity, CFU over time; assay type: cell-based; settings: G0790 at 2× MIC, two independent experiments in duplicates
E. coli CFT073 imp4213 = test: Frequency of resistance (FOR); assay type: cell-based; settings: 4× MIC, MHII agarose
Description: Frequencies of resistance (FORs) of G0790 were determined for E. coli CFT073, E. cloacae (ATCC 13047), and K. pneumoniae (ATCC 700603) as previously published ([70]). To determine the FOR, 3 to 4 colonies of the strain to be tested were picked from a fresh plate and diluted to an optical density at 600 nm (OD600) of 0.00001 in 1 ml of cation-adjusted MHBII. Ten independent 5-ml cultures in MHBII were prepared by inoculating 5 μl (approximately 1 × 10^3 CFU) and incubated at 37°C for 18 h. The bacteria were pelleted by centrifugation at 4000 × g at 4°C for 15 min and resuspended in 0.5 ml fresh MHBII. Two hundred fifty microliters of the bacterial suspension was plated evenly on MHII agarose plates containing globomycin or G0790 at a final concentration of 4× and 8× MIC. In parallel, CFU from each independent culture was measured by spotting 10-fold serial dilutions on MHII agar plates and incubated at 37°C for 18 h. Colonies were counted at days 1, 2, and 3 postinoculation. FOR was calculated as the ratio of the total number of resistant colonies relative to the total CFU plated. For strains that had no resistant colonies growing on plates, the p0 method was used to calculate the FOR (FOR = m/total CFU plated, where m = −ln p0 and p0 is the proportion of cultures with no mutants; 0.7 ≥ p0 ≥ 0.1), as described previously ([71]). Colonies were picked and resuspended in 30 μl MHBII broth medium, and 10 μl was plated on an MHII agar plate containing G0790 to be used to determine the MIC. Of the remaining 20 μl, half was used to inoculate 1.5 ml MHBII broth medium containing G0790 and grown at 37°C for 18 h to generate cell lysates for Western blot analysis, isolate genomic DNA (gDNA) for whole-genome sequencing, and for frozen glycerol stocks.

Lpp = settings: in words; cited from earlier work
Excerpt: We confirmed that the increase in potency against WT bacterial strains was specific to LspA by using multiple parallel approaches. […] Third, like GBM, G0790 is bactericidal, a ...

Compound	Effect of plasmid-based lspA overexpression [1]	Effect of complete Lpp deletion ([1]; previous finding, ref as printed: none in abstract)	WT/tolC MIC shift (E. coli MG1655 ΔtolC) [fold]	LspA inhibition, mode (LspA)	Ki (LspA; previously described by Dev et al.) [nM]	Growth inhibition of WT Gram-negative bacteria [2]	Bactericidal activity (E. coli CFT073)	FOR (frequency of resistance) (E. coli CFT073 imp4213)	Accumulation of peptidoglycan-associated Lpp in the inner membrane (Lpp)
CCCCCC[C@H]1OC(=O)CNC(=O)[C@H]([C@H](C)O)NC(=O)[C@H](CO)NC(=O)[C@H]([C@H](C)CC)NC(=O)[C@H](CC(C)C)N(C)C(=O)[C@@H]1C [GBM, globomycin]	confer resistance	leads to globomycin resistance	~128	inhibit LspA function by targeting the catalytic dyad aspartic acid residues	36	weak growth inhibition	bactericidal	1.4 × 10^−9	accumulation of the peptidoglycan-associated form of Lpp in the inner membrane
CCCC1OC(=O)C(C)CC(C)CCCCC(=O)CCCC(CC)/C=C/C=C(\COC)CCC(O)C(O)CC(O)CNC1=O (centres unmarked) [myxovirescin]	confer resistance			inhibit LspA function by targeting the catalytic dyad aspartic acid residues					
